Data from patent US7544698B2, “Indoles and benzoimidazoles as modulators of the histamine H4 receptor” (Janssen Pharmaceutica, N.V., priority 2006, dated 2009).
Where a name gives a salt, the structure may show the parent alone.

Target: T1, human histamine H4 receptor (Homo sapiens, UniProt Q9H3N8)
T1 construct: expressed in transfected cells; host or cells: SK-N-MC cells or COS7 cells, transiently transfected with pH4R; cell membranes
Assay: Binding Assay on Recombinant Human Histamine H4 Receptor (3H-histamine competition, membranes of transfected SK-N-MC or COS7 cells)
Conditions: competition with 3H-histamine (5 nM ligand, KD 5 nM), Cheng-Prusoff; mean of results; > = solubility limit or highest concentration tested
Method: Binding Assay on Recombinant Human Histamine H4 Receptor
SK-N-MC cells or COS7 cells were transiently transfected with pH4R and grown in 150 cm^2 tissue culture dishes. Cells were washed with saline solution, scraped with a cell scraper and collected by centrifugation (1000 rpm, 5 min). Cell membranes were prepared by homogenization of the cell pellet in 20 mM Tris-HCl with a polytron tissue homogenizer for 10 sec at high speed. Homogenate was centrifuged at 1000 rpm for 5 min at 4° C. The supernatant was then collected and centrifuged at 20,000×g for 25 min at 4° C. The final pellet was resuspended in 50 mM Tris-HCl. […] Incubation occurred at room temperature for 45 min. Membranes were harvested by rapid filtration over Whatman GF/C filters and washed 4 times with ice-cold 50 mM Tris HCl. Filters were then dried, mixed with scintillant and counted for radioactivity. SK-N-MC or COS7 cells expressing human histamine H4 receptor were used to measure the affinity of binding of other compounds and their ability to displace ^3H-ligand binding by incubating the above-described reaction in the presence of various concentrations of inhibitor or compound to be tested.

T1 sequence (Q9H3N8 whole entry): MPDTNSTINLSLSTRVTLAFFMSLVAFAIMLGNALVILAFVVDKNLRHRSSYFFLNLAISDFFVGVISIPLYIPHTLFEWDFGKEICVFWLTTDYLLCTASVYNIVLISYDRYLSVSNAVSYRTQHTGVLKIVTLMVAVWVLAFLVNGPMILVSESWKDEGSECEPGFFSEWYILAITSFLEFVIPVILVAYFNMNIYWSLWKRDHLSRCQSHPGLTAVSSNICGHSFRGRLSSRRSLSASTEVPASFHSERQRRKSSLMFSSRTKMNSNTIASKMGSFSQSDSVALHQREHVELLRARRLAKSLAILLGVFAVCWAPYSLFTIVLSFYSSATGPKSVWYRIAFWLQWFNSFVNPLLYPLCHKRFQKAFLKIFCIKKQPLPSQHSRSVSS

Row | SMILES | Ki [nM]
1 | O=C(c1cc2ccccc2[nH]1)N1C[C@H]2CCCN[C@H]2C1 (relative stereo) [Example 5, cis-(1H-Indol-2-yl)-(octahydro-pyrrolo[3,4-b]pyridin-6-yl)-methanone trifluoroacetic acid salt] | 40
2 | O=C(c1nc2cc(Cl)ccc2[nH]1)N1C[C@H]2CCCN[C@H]2C1 (relative stereo) [Example 7, cis-(5-Chloro-1H-benzoimidazol-2-yl)-(octahydro-pyrrolo[3,4-b]pyridin-6-yl)-methanone] | 20
3 | O=C(c1cc2cc(Cl)ccc2[nH]1)N1C[C@H]2CCCN[C@H]2C1 (relative stereo) [Example 10, cis-(5-Chloro-1H-indol-2-yl)-(octahydro-pyrrolo[3,4-b]pyridin-6-yl)-methanone] | 8
4 | O=C(c1cc2cc(F)ccc2[nH]1)N1C[C@H]2CCCN[C@H]2C1 (relative stereo) [Example 13, cis-(5-Fluoro-1H-indol-2-yl)-(octahydro-pyrrolo[3,4-b]pyridin-6-yl)-methanone hydrochloride salt] | 28
5 | O=C(c1cc2cccc([N+](=O)[O-])c2[nH]1)N1C[C@H]2CCCN[C@H]2C1 (relative stereo) [Example 14, cis-(7-Nitro-1H-indol-2-yl)-(octahydro-pyrrolo[3,4-b]pyridin-6-yl)-methanone hydrochloride salt] | > 10000
6 | O=C(c1cc2c(F)cc(F)cc2[nH]1)N1C[C@H]2CCCN[C@H]2C1 (relative stereo) [Example 15, cis-(4,6-Difluoro-1H-indol-2-yl)-(octahydro-pyrrolo[3,4-b]pyridin-6-yl)-methanone hydrochloride salt] | 220
7 | CN1CCC[C@@H]2CN(C(=O)c3cc4ccccc4[nH]3)C[C@@H]21 (relative stereo) [Example 27, cis-(1H-Indol-2-yl)-(1-methyl-octahydro-pyrrolo[3,4-b]pyridin-6-yl)-methanone] | 560
8 | CN1CCC[C@@H]2CN(C(=O)c3cc4cc(Cl)ccc4[nH]3)C[C@@H]21 (relative stereo) [Example 28, cis-(5-Chloro-1H-indol-2-yl)-(1-methyl-octahydro-pyrrolo[3,4-b]pyridin-6-yl)-methanone] | 240
9 | Cc1ccc2[nH]c(C(=O)N3C[C@H]4CCCN[C@H]4C3)cc2c1 (relative stereo) [Example 29, cis-(5-Methyl-1H-indol-2-yl)-(octahydro-pyrrolo[3,4-b]pyridin-6-yl)-methanone hydrochloride salt] | 41
10 | O=C(c1cc2ccccc2[nH]1)N1C[C@@H]2C[C@H]1CN2 [Example 1, (S,S)-(2,5-Diaza-bicyclo[2.2.1]hept-2-yl)-(1H-indol-2-yl)-methanone hydrochloride salt] | 1110
11 | CN1C[C@@H]2C[C@H]1CN2C(=O)c1cc2ccccc2[nH]1 [Example 2, (S,S)-(1H-Indol-2-yl)-(5-methyl-2,5-diaza-bicyclo[2.2.1]hept-2-yl)-methanone] | 3200
12 | CNC1CCN(C(=O)c2cc3ccccc3[nH]2)C1 (centres unmarked) [Example 3, (1H-Indol-2-yl)-(3-methylamino-pyrrolidin-1-yl)-methanone trifluoroacetic acid salt] | 430
13 | CN[C@@H]1CCN(C(=O)c2cc3ccccc3[nH]2)C1 [Example 4, (R)-(1H-Indol-2-yl)-(3-methylamino-pyrrolidin-1-yl)-methanone hydrochloride salt] | 160
14 | O=C(c1cc2ccccc2[nH]1)N1C[C@@H]2CCCN[C@@H]2C1 [Example 6, (S,S)-(1H-Indol-2-yl)-(octahydro-pyrrolo[3,4-b]pyridin-6-yl)-methanone trifluoroacetic acid salt] | > 10000
15 | CN[C@@H]1CCN(C(=O)c2cc3cc(Cl)ccc3[nH]2)C1 [Example 8, (R)-(5-Chloro-1H-indol-2-yl)-(3-methylamino-pyrrolidin-1-yl)-methanone] | 53
16 | CN[C@H]1CCN(C(=O)c2cc3cc(Cl)ccc3[nH]2)C1 [Example 9, (S)-(5-Chloro-1H-indol-2-yl)-(3-methylamino-pyrrolidin-1-yl)-methanone] | 540

Row | SMILES | Ki [nM]
17 | O=C(c1cc2cc(Cl)ccc2[nH]1)N1C[C@H]2CCCN[C@H]2C1 [Example 11, (R,R)-(5-Chloro-1H-indol-2-yl)-(octahydro-pyrrolo[3,4-b]pyridin-6-yl)-methanone hydrochloride salt] | 27
18 | O=C(c1cc2cc(Cl)ccc2[nH]1)N1C[C@@H]2CCCN[C@@H]2C1 [Example 12, (S,S)-(5-Chloro-1H-indol-2-yl)-(octahydro-pyrrolo[3,4-b]pyridin-6-yl)-methanone hydrochloride salt] | > 10000
19 | O=C(c1cc2cc(Cl)ccc2[nH]1)N1C[C@@H]2CCCN[C@@H]2C1 [Example 12A, (S,S)-(5-Chloro-1H-indol-2-yl)-(octahydro-pyrrolo[3,4-b]pyridin-6-yl)-methanone] | 180
20 | CN[C@H]1CCN(C(=O)c2cc3cc(F)ccc3[nH]2)C1 [Example 16, (S)-(5-Fluoro-1H-indol-2-yl)-(3-methylamino-pyrrolidin-1-yl)-methanone] | 680
21 | CN[C@@H]1CCN(C(=O)c2cc3cc(F)ccc3[nH]2)C1 [Example 17, (R)-(5-Fluoro-1H-indol-2-yl)-(3-methylamino-pyrrolidin-1-yl)-methanone] | 38
22 | CN[C@H]1CCN(C(=O)c2cc3cccc(C)c3[nH]2)C1 [Example 18, (S)-(3-Methylamino-pyrrolidin-1-yl)-(7-methyl-1H-indol-2-yl)-methanone] | > 10000
23 | CN[C@@H]1CCN(C(=O)c2cc3cccc(C)c3[nH]2)C1 [Example 19, (R)-(3-Methylamino-pyrrolidin-1-yl)-(7-methyl-1H-indol-2-yl)-methanone] | 150
24 | CN[C@H]1CCN(C(=O)c2cc3cc(C)ccc3[nH]2)C1 [Example 20, (S)-(3-Methylamino-pyrrolidin-1-yl)-(5-methyl-1H-indol-2-yl)-methanone] | > 10000
25 | CN[C@@H]1CCN(C(=O)c2cc3cc(C)ccc3[nH]2)C1 [Example 21, (R)-(3-Methylamino-pyrrolidin-1-yl)-(5-methyl-1H-indol-2-yl)-methanone] | 280
26 | CN[C@H]1CCN(C(=O)c2cc3c(F)cc(F)cc3[nH]2)C1 [Example 22, (S)-(4,6-Difluoro-1H-indol-2-yl)-(3-methylamino-pyrrolidin-1-yl)-methanone] | > 5000
27 | CN[C@@H]1CCN(C(=O)c2cc3c(F)cc(F)cc3[nH]2)C1 [Example 23, (R)-(4,6-Difluoro-1H-indol-2-yl)-(3-methylamino-pyrrolidin-1-yl)-methanone] | 680
28 | NC1CCN(C(=O)c2cc3cc(Cl)ccc3[nH]2)C1 (centres unmarked) [Example 24, (3-Amino-pyrrolidin-1-yl)-(5-chloro-1H-indol-2-yl)-methanone hydrochloride salt] | 190
29 | CN(C)C1CCN(C(=O)c2cc3cc(Cl)ccc3[nH]2)C1 (centres unmarked) [Example 25, (5-Chloro-1H-indol-2-yl)-(3-dimethylamino-pyrrolidin-1-yl)-methanone] | 1160
30 | CN(C)C1CCN(C(=O)c2cc3ccccc3[nH]2)C1 (centres unmarked) [Example 26, (3-Dimethylamino-pyrrolidin-1-yl)-(1H-indol-2-yl)-methanone] | 9000
31 | CNC1CCN(C(=O)c2nc3ccccc3[nH]2)C1 (centres unmarked) [Example 30, (1H-Benzoimidazol-2-yl)-(3-methylamino-pyrrolidin-1-yl)-methanone hydrochloride salt] | 2000
32 | CN(C)C1CCN(C(=O)c2nc3ccccc3[nH]2)C1 (centres unmarked) [Example 31, (1H-Benzoimidazol-2-yl)-(3-dimethylamino-pyrrolidin-1-yl)-methanone] | 8200
